Assay results as given in patent US6184374A, “Targeted cytotoxic anthracycline analogs” (priority 1998, dated 2001).
Where two headings read alike, the source gives them in different places.

Tested on: MCF-7 human mammary carcinoma cell line
Assay type: cell-based
Text: MXT estrogen-independen mouse mammary carcinoma cell line was obtained from Dr. Gunter Berndhart, University of Regensburg, Germany. All the other cell lines used in the determination of the antiproliferative activity of the compounds of this invention were obtained from the American Type Culture Collection (ATCC).
For the evaluation of the activity of the analogs, a colorimetric cytotoxicity assay in microtitration plates was used based on quantification of biomass by staining cells with crystal violet, which correlates very well with determination of cell numbers. (Reile et al.; Anal. Biochem. 187, 262-267, 1990; Bernhardt G. et al, J. Cancer Res. Clin. Oncol. (1992), 118, 35-43; Spruss Th. et al, J. Cancer Res. Clin. Oncol 117, 435-443, 1991; Gillies, R. J., Anal. Biochem. 159, 109-113, 1986; Kueng, W. et al.; Anal. Biochem., 182 16-19, 1989.)
One to two days after seeding cells in 96-well plates the culture medium is exchanged with fresh medium containing the compounds to be tested and fresh medium only for the control cultures. After varying time of incubation, cells are fixed with glutaric dialdehyde and stored under […] at 4° C. until the end of the experiment. Cells are stained with crystal violet and bound stain is extracted with 70% aqueous EtOH. Optical density is measured with EIA Reader (Bio-Tek Instruments) or Biomek 1000 (Beckman) at 590 nm or 600 nm, respectively. Each data point represents the mean value of eight culture wells. T/C values are calculated as T/C=(T-C0)/(C-C0) where T=optical density of treated cultures, C=optical density of control (untreated) cultures, C0 =optical density of cultures at the start of incubation (t=0).
Cells were incubated in IMEM media containing 5% Hl:DCC-FBS (heat inactivated dextran coated charcoal treated fetal bovine serum) on 96 well plates. Relative cell number in treated and control plates was determined by the crystal violet staining method and was expressed as T/C values where T/C=T-C0 /C-C0×100 [T=absorbance of treated cultures, C= absorbance of control cultures, C0 =absorbance of cultures at the start of incubation (t=0). The measured absorbance is proportionate to the cell number.]

[1] = Table 17-1; 3 × 10^-8 M; incubation 70 hr
[2] = Table 17-1; 3 × 10^-8 M; incubation 120 hr
[3] = Table 17-1; 3 × 10^-9 M; incubation 70 hr
[4] = Table 17-1; 3 × 10^-9 M; incubation 120 hr
[5] = Table 17-1; 10^-8 M; incubation 70 hr
[6] = Table 17-1; 10^-8 M; incubation 120 hr

Row | SMILES | T/C Value [1] | T/C Value [2] | T/C Value [3] | T/C Value [4] | T/C Value [5] | T/C Value [6] | T/C Value (Table 17-1; 3 × 10^-10 M; incubation 70 hr) | T/C Value (Table 17-1; 3 × 10^-10 M; incubation 120 hr) | T/C Value (Table 17-1; 10^-9 M; incubation 70 hr) | T/C Value (Table 17-1; 10^-9 M; incubation 120 hr) | T/C Value (Table 17-1, 10^-8 M; incubation 70 hr) | T/C Value (Table 17-1, 10^-8 M; incubation 120 hr)
1 | COc1cccc2c1C(=O)c1c(O)c3c(c(O)c1C2=O)C[C@@](O)(C(=O)CO)C[C@@H]3O[C@H]1C[C@H](N2CCCC(=O)C2)[C@H](O)[C@H](C)O1.O=C(O)C(F)(F)F [Compound Q7, 3'-deamino-3'-(3"-piperidone-1"-yl) doxorubicin] | 59 | 43 | 96 | 97 | 80 | 70 | – | – | – | – | – | –
2 | COc1cccc2c1C(=O)c1c(O)c3c(c(O)c1C2=O)C[C@@](O)(C(=O)CO)C[C@@H]3O[C@H]1C[C@H](N2CC=CC2)[C@H](O)[C@H](C)O1.O=C(O)C(F)(F)F [Compound Q4, 3'-deamino-3'-(3"-pyrroline-1"-yl)doxorubicin] | – | -5 | 106 | 97 | 72 | 65 | – | – | – | – | – | –
3 | COc1cccc2c1C(=O)c1c(O)c3c(c(O)c1C2=O)C[C@@](O)(C(=O)CO)C[C@@H]3O[C@H]1C[C@H](N2CCC(=O)C2)[C@H](O)[C@H](C)O1.O=C(O)C(F)(F)F [Compound Q5, 3'-deamino-3'-(3"-pyrrolidone-1"-yl) doxorubicin] | -28 | -10 | 87 | 67 | 30 | 25 | – | – | – | – | – | –
4 | COc1cccc2c1C(=O)c1c(O)c3c(c(O)c1C2=O)C[C@@](O)(C(=O)CO)C[C@@H]3O[C@H]1C[C@H](N2C=CCCC2)[C@H](O)[C@H](C)O1.O=C(O)C(F)(F)F [Compound Q8, 3'-deamino-3'-(1",3"-tetrahydropyridine-1"-yl)doxorubicin] | – | – | 69 | 62 | – | – | 96 | 99 | 88 | 93 | – | –
5 | COc1cccc2c1C(=O)c1c(O)c3c(c(O)c1C2=O)C[C@@](O)(C(=O)CO)C[C@@H]3O[C@H]1C[C@H](N2CCCCC2)[C@H](O)[C@H](C)O1 [AN-183, Piperidino-DOX] | 4 | 0 | 114 | 109 | 70 | 67 | – | – | – | – | – | –
6 | COc1cccc2c1C(=O)c1c(O)c3c(c(O)c1C2=O)C[C@@](O)(C(=O)CO)C[C@@H]3O[C@H]1C[C@H](N2Cc3ccccc3C2)[C@H](O)[C@H](C)O1.O=C(O)C(F)(F)F [Compound Q3, 3'-deamino-3'-(isoindoline-2"-yl)doxorubicin] | 86 | 77 | – | – | 118 | 108 | – | – | – | – | -11 | -29
